Test results reported in the NIST ThermoML archive (doi:10.1021/acs.jced.6b00786).

Columns and labels:
[1] = 101 kPa, Liquid, Vibrating tube method
[2] = xn = mol fraction of the nth substance listed; conditions: 101 kPa, Liquid, Vibrating tube method, x2 = 0

NC=O [formamide]
[1]
Conditions	mass density [kg/m3]
278.15 K	1146.62
288.15 K	1138.17
298.15 K	1129.73
308.15 K	1121.22
323.15 K	1108.46
333.15 K	1099.88

O [water]
[1]
Conditions	mass density [kg/m3]
274.15 K	999.899
275.15 K	999.94
276.15 K	999.964
277.15 K	999.972
278.15 K	999.964
279.15 K	999.94
280.15 K	999.901
281.15 K	999.848
282.15 K	999.781
283.15 K	999.699
323.15 K	988.03
333.15 K	983.191

O [water] + NC=O
[2]
Conditions	mass density [kg/m3]
274.15 K	999.899
275.15 K	999.94
276.15 K	999.964
277.15 K	999.972
278.15 K	999.964
279.15 K	999.94
280.15 K	999.901
281.15 K	999.848
282.15 K	999.781
283.15 K	999.699
323.15 K	988.03
333.15 K	983.191
